Holding throughout (assay): Anti-proliferation assay (ATPLite), Chalice synergy score
What all share (type): cell-based
(In ATP-based viability assays light output follows the ATP content of the culture.)

In one test the test system is HCC-1187. Set-up: scale not given here. The settings on record: Compound 1 in combination with the named second active agent, 72 h, mean of n = 3 experiments in triplicate. From the text: (§1) Cells were thawed from a liquid nitrogen preserved state.
(§2) The calculation for synergy score is provided below.
(§3) If T≧V0:100*[1−(T−V0)/(V−V0)]

The test system of the next test is BT-20. Set-up: scale not given here. The settings on record: Compound 1 in combination with the named second active agent, 72 h, mean of n = 3 experiments in triplicate.
From the text: as §1, §2, §3

Another test concerns HCC-1500. Set-up: scale not given here. The note with it: Compound 1 in combination with the named second active agent, 72 h, mean of n = 3 experiments in triplicate.
From the text: as §1, §2, §3

Another test deals with Hs-578-T. The settings on record: Compound 1 in combination with second active agent, mean self-cross + 2σ threshold 4.09.
From the text: as §1, §2, §3

The next test has as its system BT-474. The note with it: Compound 1 in combination with the named second active agent, 72 h, mean of n = 3 experiments in triplicate.
From the text: as §1, §2, §3

For a further test, the system named is HCC-1428. The settings on record: Compound 1 in combination with the named second active agent, 72 h, mean of n = 3 experiments in triplicate.
From the text: as §1, §2, §3

The next test deals with MDA-MB-231. The note with it: Compound 1 in combination with second active agent, mean self-cross + 2σ threshold 2.61.
From the text: as §1, §2, §3

A further test deals with HCC-1937. The note with it: Compound 1 in combination with the named second active agent, 72 h, mean of n = 3 experiments in triplicate.
From the text: as §1, §2, §3

The next test relates to MCF7. The settings on record: Compound 1 in combination with second active agent, mean self-cross + 2σ threshold 3.07.
From the text: as §1, §2, §3

In a further test the test system is MDA-MB-436. The settings on record: Compound 1 in combination with second active agent, mean self-cross + 2σ threshold 1.91.
From the text: as §1, §2, §3

For another test, the system named is MDA-MB-157. The note with it: Compound 1 in combination with second active agent, mean self-cross + 2σ threshold 4.68.
From the text: as §1, §2, §3

Another test has as its system HCC70. The note with it: Compound 1 in combination with second active agent; HCC-70; mean self-cross + 2σ threshold 3.45.
From the text: as §1, §2, §3

Another test concerns BT-549. The settings on record: Compound 1 in combination with the named second active agent, 72 h, mean of n = 3 experiments in triplicate.
From the text: as §1, §2, §3

In another test the test system is MDA-MB-468. The note with it: Compound 1 in combination with second active agent, mean self-cross + 2σ threshold 4.66.
From the text: as §1, §2, §3

In another test the test system is HCC-1806. The settings on record: Compound 1 in combination with the named second active agent, 72 h, mean of n = 3 experiments in triplicate.
From the text: as §1, §2, §3

Regarding `CO[C@H]1/C=C\C=C(/C)C(=O)NC2=CC(=O)C(NCCN(C)C)=C(C[C@@H](C)C[C@H](OC)[C@H](O)[C@@H](C)/C=C(\C)[C@@H]1OC(N)=O)C2=O` [Compound 17-DMAG], the Synergy score in the test on HCC-1187 is 0.33; with BT-20, 5.94; in the test with HCC-1500 it was 0.99; with Hs-578-T, 0.45; in the test on BT-474 it was 2.24; in the test on HCC-1428, 2.46. Moreover, the Synergy score worked out at 1.00 with MDA-MB-231; 1.70 in the test on HCC-1937; 0.13 in the test with MCF7; 0.61 with MDA-MB-436; 6.09 with MDA-MB-157; 11.10 in the test with HCC70. Further, the results for the Synergy score in the test with BT-549, in the test on MDA-MB-468 and in the test on HCC-1806 were 0.01, 7.72 and 1.40, respectively.
Consider `C[C@@]1(C(=O)Nc2ccc(F)nc2)CCCN1c1nc(Nc2cc(C3CC3)n[nH]2)c2cccn2n1` [BMS-754807], for which the Synergy score in the test with HCC-1187 stood at 9.68; in the test on BT-20, 2.08; in the test with HCC-1500, 3.99; in the test on Hs-578-T, 3.32; in the test with BT-474 it was 1.30; in the test with HCC-1428 it was 4.09. For the same molecule, the Synergy score came to 2.50 in the test on MDA-MB-231; 0.64 in the test on HCC-1937; 5.31 with MCF7; 2.00 in the test on MDA-MB-436; 9.46 in the test with MDA-MB-157; 2.08 in the test with HCC70. Moreover, the Synergy score in the test on BT-549 is 2.14; with MDA-MB-468, 2.25; in the test with HCC-1806 it was 3.04.
In the case of `COc1ccc(Cl)c(Nc2nc3ccccc3nc2NS(=O)(=O)c2cccc(NC(=O)C(C)(C)N)c2)c1` [XL147], the Synergy score in the test on HCC-1187 came out at 5.02; with BT-20 it was 0.23; with HCC-1500, 2.87; with Hs-578-T it was 0.77; with BT-474, 1.81; with HCC-1428, 0.43. Also, the Synergy score in the test on MDA-MB-231 is listed as 0.57; with HCC-1937, 0.64; in the test with MCF7, 0.18; in the test on MDA-MB-436, 0.67; with MDA-MB-157, 1.99; in the test on HCC70, 0.09. For the same molecule, the Synergy score is 0.18 with BT-549, 0.34 in the test with MDA-MB-468 and 1.06 with HCC-1806.
Turning to `CN(C)CC[C@H](CSc1ccccc1)Nc1ccc(S(=O)(=O)NC(=O)c2ccc(N3CCN(Cc4ccccc4-c4ccc(Cl)cc4)CC3)cc2)cc1[N+](=O)[O-]` [ABT-737], the Synergy score in the test on HCC-1187 was 8.77; in the test on BT-20 it was 7.28; in the test on HCC-1500, 4.23; with Hs-578-T, 10.00; with BT-474, 4.14; with HCC-1428 it was 10.60. The Synergy score with MDA-MB-231 is listed as 10.00; with HCC-1937, 5.46; in the test on MCF7 it was 6.97; in the test with MDA-MB-436, 0.56; in the test on MDA-MB-157, 4.46; in the test on HCC70, 9.10. For the same molecule, the Synergy score is 6.10 in the test with BT-549, 8.29 with MDA-MB-468 and 6.15 in the test on HCC-1806.
As for `COCCn1c2c([n+](Cc3cnccn3)c1C)C(=O)c1ccccc1C2=O` [YM155], the Synergy score in the test with HCC-1187 is 4.94; with BT-20, 2.67; with HCC-1500, 2.81; in the test on Hs-578-T, 3.36; in the test with BT-474, 4.04; in the test on HCC-1428, 1.16. Also, the Synergy score in the test with MDA-MB-231 is on record as 2.54; with HCC-1937 it was 5.70; with MCF7, 1.77; with MDA-MB-436, 2.79; with MDA-MB-157, 5.42; in the test with HCC70 it was 4.01. For the same molecule, the Synergy score in the test with BT-549 is reported as 6.80; with MDA-MB-468 it was 0.24; with HCC-1806 it was 5.52.
For `OCCn1cc(-c2ccc3c(c2)CC/C3=N\O)c(-c2ccncc2)n1` [GDC-0879], the Synergy score in the test with HCC-1187 is recorded as 0.85; in the test with BT-20, 0.00; with HCC-1500 it was 0.91; in the test on Hs-578-T it was 0.75; with BT-474 it was 0.46; with HCC-1428, 0.13. Also, the Synergy score with MDA-MB-231 was found to be 0.54; with HCC-1937, 0.29; in the test with MCF7, 0.11; in the test with MDA-MB-436, 0.13; with MDA-MB-157, 0.69; in the test with HCC70 it was 0.43. Further, the Synergy score with BT-549 is 0.08; in the test on MDA-MB-468 it was 0.44; in the test on HCC-1806 it was 0.47.
As for `O=C(Nc1cc(C(F)(F)F)cc(C(F)(F)F)c1)c1cc(Cl)ccc1O` [IMD-0354], the Synergy score came out at 1.86 in the test on HCC-1187; 1.85 in the test with BT-20; 1.42 in the test with HCC-1500; 3.35 with Hs-578-T; 1.77 in the test on BT-474; 0.51 with HCC-1428. For the same molecule, the Synergy score in the test on MDA-MB-231 stood at 6.14; with HCC-1937, 6.42; with MCF7 it was 2.88; in the test on MDA-MB-436, 3.94; with MDA-MB-157, 4.80; in the test on HCC70, 0.88. In addition, the Synergy score with BT-549 came to 2.68; in the test with MDA-MB-468, 3.80; in the test on HCC-1806 it was 7.45.
Turning to `CCc1cc(Nc2nccc(-c3c(-c4ccc(OC)c(C(=O)Nc5c(F)cccc5F)c4)nc4ccccn34)n2)c(OC)cc1N1CCC(N2CCN(S(C)(=O)=O)CC2)CC1` [GSK1904529A], the Synergy score in the test on HCC-1187 was determined as 1.68; in the test with BT-20, 1.07; in the test on HCC-1500 it was 1.63; in the test on Hs-578-T, 0.97; with BT-474, 1.09; in the test with HCC-1428, 0.16. For the same molecule, the Synergy score is recorded as 0.09 in the test on MDA-MB-231; 1.86 with HCC-1937; 2.77 in the test on MCF7; 1.22 in the test with MDA-MB-436; 0.82 in the test with MDA-MB-157; 2.15 in the test on HCC70. The Synergy score in the test on BT-549 is 0.81; in the test with MDA-MB-468 it was 2.44; with HCC-1806, 1.00.
On to `O=C(NOC[C@H](O)CO)c1ccc(F)c(F)c1Nc1ccc(I)cc1F` [PD0325901], for which the Synergy score with HCC-1187 is on record as 7.89; in the test on BT-20, 6.34; in the test on HCC-1500, 3.58; in the test with Hs-578-T it was 3.88; in the test on BT-474, 1.50; in the test on HCC-1428, 4.69. In addition, the Synergy score in the test with MDA-MB-231 is reported as 9.62; with HCC-1937, 3.54; in the test with MCF7 it was 4.62; in the test on MDA-MB-436 it was 4.20; in the test on MDA-MB-157, 8.05; in the test on HCC70, 14.70. The Synergy score in the test with BT-549 is recorded as 1.62; with MDA-MB-468, 5.84; in the test on HCC-1806, 3.78.

(Values after patent US9737535B2, “Methods for treating cancer using TOR kinase inhibitor combination therapy comprising administering substituted pyrazino[2,3-b]pyrazines” (Signal Pharmaceuticals, LLC, priority 2014, dated 2017).)
